Source: patent US7232659B1, “Multiplex analysis for high throughput discrimination of GPCR agonists and antagonists” (STC.UNM, priority 2003, dated 2007)
Residues, ends and D or L forms follow the SMILES beside them. *: point of attachment. For = O=C*

Key:
[1] = target: T1, β2AR-GFP with Gαsβ1γ2 on Ni beads (Homo sapiens, UniProt P07550); assay: ARG assembly assay on G protein coated beads, flow cytometry; assay type: biochemical; details: for slope of GFP/bead versus β2AR-GFP concentration: dobutamine relative to salbutamol
T1 construct: expressed in transfected cells; host or cells: receptor fusion: U937 cells, solubilized membranes
T1 sequence (P62873 2-340): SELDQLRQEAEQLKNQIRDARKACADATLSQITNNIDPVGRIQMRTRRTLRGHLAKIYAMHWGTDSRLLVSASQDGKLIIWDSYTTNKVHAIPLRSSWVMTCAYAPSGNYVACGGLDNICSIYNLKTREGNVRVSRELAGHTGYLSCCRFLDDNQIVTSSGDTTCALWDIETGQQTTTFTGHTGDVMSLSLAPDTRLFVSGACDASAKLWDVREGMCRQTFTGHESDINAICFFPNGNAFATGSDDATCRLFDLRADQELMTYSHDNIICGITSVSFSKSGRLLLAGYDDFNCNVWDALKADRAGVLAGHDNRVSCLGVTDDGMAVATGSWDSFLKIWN
T1 sequence (P07550 whole entry, the tested form may be a part): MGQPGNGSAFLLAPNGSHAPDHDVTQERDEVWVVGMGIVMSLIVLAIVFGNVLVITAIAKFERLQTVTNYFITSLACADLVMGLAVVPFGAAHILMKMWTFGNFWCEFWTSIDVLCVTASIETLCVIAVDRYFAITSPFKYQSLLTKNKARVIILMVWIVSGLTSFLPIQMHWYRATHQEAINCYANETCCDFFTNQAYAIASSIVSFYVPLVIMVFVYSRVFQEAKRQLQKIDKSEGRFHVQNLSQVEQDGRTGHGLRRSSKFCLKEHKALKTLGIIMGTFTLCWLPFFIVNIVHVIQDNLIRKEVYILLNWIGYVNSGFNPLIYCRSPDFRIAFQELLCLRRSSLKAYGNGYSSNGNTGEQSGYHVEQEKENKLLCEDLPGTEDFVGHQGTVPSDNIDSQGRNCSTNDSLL
T1 sequence (P59768 2-68, further chain): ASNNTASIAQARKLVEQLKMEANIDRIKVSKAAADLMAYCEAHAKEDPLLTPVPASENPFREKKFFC
T1 sequence (P63092 other isoform, or with tags, fused parts or gaps, further chain): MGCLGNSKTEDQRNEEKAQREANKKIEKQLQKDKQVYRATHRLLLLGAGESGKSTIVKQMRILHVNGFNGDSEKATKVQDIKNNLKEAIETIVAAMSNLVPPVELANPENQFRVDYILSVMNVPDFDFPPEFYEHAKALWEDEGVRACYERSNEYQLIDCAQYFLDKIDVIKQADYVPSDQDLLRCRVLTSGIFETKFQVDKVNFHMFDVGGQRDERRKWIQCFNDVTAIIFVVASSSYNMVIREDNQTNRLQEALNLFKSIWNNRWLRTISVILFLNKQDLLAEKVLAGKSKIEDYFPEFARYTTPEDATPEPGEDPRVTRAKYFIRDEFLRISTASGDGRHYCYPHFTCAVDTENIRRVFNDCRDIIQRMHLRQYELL
Method: ARG Assembly Assay on G Protein Coated Beads—Coating of the Ni beads with heterotrimeric G proteins has been described before in detail (10). Briefly, 25 pmol of the desired α subunit and 25 pmol of hexahistidine-tagged β1γ2 were mixed with 2.5 μl of a 50% slurry of DCNi beads (2.5×10^5 beads/μl) and 190 μl of HPSM containing 0.1% dodecyl maltoside and 1 mM dithiothreitol, then kept in suspension by rocking at 4–7° C. for one hour. The beads were then centrifuged for 30 seconds at 1,500×gmax, the supernatant was removed, and the beads were resuspended in 50 μl of the buffer. This provided 25 aliquots of 24,000 G protein coated beads, for 25 ARG assembly assays (some beads were lost to surfaces). A ten microliter ARG assembly assay generally consisted of two microliters of solubilized receptor preparation, two microliters of desired ligand, four microliters of HPSM containing 0.1% dodecyl maltoside, and two microliters of G protein coated beads. Nonspecific fluorescence was defined in the presence of 0.1 mM GTPγS. These suspensions were mixed on an orbital mixer for 2 hours, brought to 200 μl with HPSM containing 0.1% dodecyl maltoside, transferred to a 12×75 mm tube, and immediately analyzed by flow cytometry for bead fluorescence. For kinetic data, tubes were removed from the cytometer after twenty seconds, 2 μl of 10^−2 M GTPγS was added and mixed, and the tubes were returned to the cytometer for measurement of the bead fluorescence. The cytometer data were converted to alphanumeric form and binned into one second intervals using the FACSQuery program (available free from Bruce Edwards), which provides a series of mean channel fluorescence (MCF) values in an Excel file.

[2] = target: T2, FPR-GFP (R^F) with Gαi3β1H6γ2 on DCNi beads (Homo sapiens, UniProt P21462); assay: Standard LRG assembly assay with FPR-GFP on G protein beads, flow cytometry; assay type: biochemical
T2 construct: host or cells: receptor fusion: transfected cells (U937 named for FPR), solubilized membranes; β1H6γ2: Sf9 insect cells
T2 sequence (P21462 whole entry, the tested form may be a part): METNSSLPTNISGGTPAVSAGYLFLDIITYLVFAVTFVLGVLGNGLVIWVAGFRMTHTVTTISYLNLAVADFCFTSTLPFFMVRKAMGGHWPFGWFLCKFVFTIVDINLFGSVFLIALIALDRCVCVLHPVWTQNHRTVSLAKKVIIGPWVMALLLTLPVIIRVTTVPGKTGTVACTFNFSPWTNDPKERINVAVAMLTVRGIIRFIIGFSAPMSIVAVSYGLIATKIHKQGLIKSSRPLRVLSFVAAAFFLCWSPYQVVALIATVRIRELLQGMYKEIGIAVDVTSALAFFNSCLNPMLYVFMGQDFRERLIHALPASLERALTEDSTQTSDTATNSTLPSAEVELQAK
T2 sequence (P08754 2-354 partner limits assumed): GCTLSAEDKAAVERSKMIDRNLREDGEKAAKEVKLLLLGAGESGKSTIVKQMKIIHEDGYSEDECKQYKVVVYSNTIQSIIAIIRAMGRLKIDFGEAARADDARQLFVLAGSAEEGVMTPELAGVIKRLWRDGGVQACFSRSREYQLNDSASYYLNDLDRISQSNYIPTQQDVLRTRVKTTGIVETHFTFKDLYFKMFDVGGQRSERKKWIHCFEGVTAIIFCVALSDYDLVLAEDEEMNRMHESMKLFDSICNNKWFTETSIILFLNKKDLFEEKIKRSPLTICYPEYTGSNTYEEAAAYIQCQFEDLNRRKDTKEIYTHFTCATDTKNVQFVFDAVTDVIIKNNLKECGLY
T2 sequence (P62873 2-340 partner limits assumed): as the sequence (P62873 2-340) above
T2 sequence (P59768 2-68 partner limits assumed): as the sequence (P59768 2-68, further chain) above
Method: Standard LRG Assembly Assay. […] Each mixture was mixed by pipetting to ensure a uniform starting suspension of the beads in 96 V-well plates (Costar), and then mixed at low speed on a vortex mixer at 7° for two hours. The 10 μl assays were individually brought to 200 μl with 0.1% dodecyl maltoside in buffer A in 12×75 mm tubes for flow cytometric measurement of fluorescence of the beads. LRG assembly was defined as the difference between fluorescence without GTPγS and that with GTPγS. All determinations were done in duplicate.

β2AR in membranes = details: membrane binding assays (3); cited from earlier work
[3] = test system: adenylyl cyclase activity via β2AR in membranes; details: membranes (3); cited from earlier work

Structure (SMILES)	slope of GFP/bead versus β2AR-GFP concentration ([1]; saturating agonist)	percent ARG form (β2AR in membranes) [%]	efficacy (adenylyl cyclase activity compared to isoproterenol) [3] [%]	other results
Nc1nc2c(ncn2[C@@H]2O[C@H](COP(=O)(O)OP(=O)(O)OP(O)(O)=S)[C@@H](O)[C@H]2O)c(=O)[nH]1 [GTPγS, guanosine 5′-3-O-(thio)triphosphate]	–	–	–	fluorescence on G protein beads with GTPγS added ([1]; 40 nM β2AR-GFP, 1 mM isoproterenol, 0.1 mM GTPγS): about 10,000 β2AR-GFP/bead
CC(CCc1ccc(O)cc1)NCCc1ccc(O)c(O)c1 (stereo not shown) [dobutamine]	⅔	–	–	rate of ternary complex disassembly after GTPγS ([1]; 0.1 mM GTPγS): 0.09 s⁻¹; maximal ARG/bead level relative to the full agonist isoproterenol ([1]; dose-response, 20 nM β2AR-GFP): ten; time course of ARG assembly ([1]; saturating agonist, 40 nM β2AR-GFP): ≤ 1 h
CNC[C@H](O)c1ccc(O)c(O)c1 [epinephrine]	indistinguishable from isoproterenol	–	–	–
CSCC[C@H](NC=O)C(=O)N[C@@H](CC(C)C)C(=O)N[C@@H](Cc1ccccc1)C(=O)N[C@@H](Cc1ccccc1)C(=O)O [fMLFF] (For-MLFF-OH)	–	–	–	EC50 [2]: 27 nM; ratio of Kd (for LR) to EC50 (for LRG formation) [2]: 2.8
CC(Cc1ccc(O)cc1)NCC(O)c1ccc(O)c(O)c1 (stereo not shown) [hydroxybenzylisoproterenol]	–	93	110	–
CC(C)NCC(O)c1ccc(O)c(O)c1 (stereo not shown) [isoproterenol]	–	80	100	–
NC[C@H](O)c1ccc(O)c(O)c1 [norepinephrine]	indistinguishable from isoproterenol	–	–	–
CC(C)(C)NCC(O)c1ccc(O)c(CO)c1 (stereo not shown) [salbutamol]	–	–	20	–
CC(C)NCC(O)c1ccc(O)c(NS(C)(=O)=O)c1 (stereo not shown) [soterenol]	–	58	8	–
